Structures are written as SMILES.

The target in this assay is Acetylcholinesterase (Electrophorus electricus, UniProt O42275).
Sequence of Acetylcholinesterase (O42275 whole entry): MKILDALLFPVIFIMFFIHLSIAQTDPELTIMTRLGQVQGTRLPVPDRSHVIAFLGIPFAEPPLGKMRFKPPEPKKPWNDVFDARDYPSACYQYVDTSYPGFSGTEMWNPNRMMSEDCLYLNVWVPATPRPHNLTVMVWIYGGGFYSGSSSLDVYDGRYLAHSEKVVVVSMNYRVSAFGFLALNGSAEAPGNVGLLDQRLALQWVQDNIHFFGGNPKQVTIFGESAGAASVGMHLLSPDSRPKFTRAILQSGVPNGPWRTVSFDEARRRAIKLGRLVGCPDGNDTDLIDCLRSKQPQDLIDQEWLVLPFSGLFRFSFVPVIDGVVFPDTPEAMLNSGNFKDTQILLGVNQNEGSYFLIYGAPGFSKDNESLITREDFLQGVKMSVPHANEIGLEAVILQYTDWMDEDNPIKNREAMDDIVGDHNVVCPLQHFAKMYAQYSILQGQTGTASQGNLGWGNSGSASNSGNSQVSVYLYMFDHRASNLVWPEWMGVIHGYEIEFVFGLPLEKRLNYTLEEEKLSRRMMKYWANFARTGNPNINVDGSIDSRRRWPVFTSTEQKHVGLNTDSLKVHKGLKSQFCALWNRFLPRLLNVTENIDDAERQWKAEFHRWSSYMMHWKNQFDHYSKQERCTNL
Description: Inhibition of electric eel acetylcholinesterase using acetylthiocholine iodide as substrate after 10 mins by Ellman's spectrophotometric method
A word on the IC50: it is the concentration that gives 50% inhibition. Molecule `CCCC/C=C\CCCCCCCCCc1cccc(OC)c1` returned an IC50 of 178 µM.
The value for `CCCCCC/C=C\CCCCCCCCCc1cccc(O)c1` was 13.1 µM; that for `CCCCCC/C=C\CCCCCCCCCc1cccc(OC)c1C(=O)OC` was 303 µM.
The molecule `CCCC/C=C\CCCCCCCCCc1cccc(OC)c1C(=O)OC` registered an IC50 of 358 µM.
The value for `CCCCC[C@H](O)/C=C/CCCCCCCc1cccc(OC)c1C(=O)OC` was 342 µM; that for `CCCC/C=C\CCCCCCCCCc1cccc(O)c1` was 17.2 µM.
As for `CCCCC[C@H](O)/C=C/CCCCCCCc1cccc(O)c1C(=O)O`, the IC50 was found to be 3.18 µM. This IC50 lies about 5.4-fold lower than the previous one.

These data come from ChEMBL document CHEMBL1795324, “New class of acetylcholinesterase inhibitors from the stem bark of Knema laurina and their structural insights” (Bioorg Med Chem Lett, 2011).
